In patent US20100160326A1, “PEST CONTROL AGENT CONTAINING NOVEL PYRIDYL-METHANAMINE DERIVATIVE OR SALT THEREOF” (ISHIHARA SANGYO KAISHA, LTD., priority 2006, published 2010):
Like-named read-outs stand apart in the source and are kept apart here.

Columns and labels:
Assay type in all cases: in vivo
[1] = system: Green Peach Aphid (Myzus persicae); experiment: Test on controlling effects against green peach aphid (leaf dip); settings: foliar, 120 h
Description: Test on Controlling Effects Against Green Peach Aphid (Myzus persicae)
Mortality (%)=(1−(number of survived insects/number of treated insects))×100

[2] = system: Common Cutworm (Spodoptera litura); experiment: Test on controlling effects against common cutworm (cabbage leaf disk dip); settings: foliar
Description: Test on Controlling Effects Against Common Cutworm (Spodoptera litura)
Mortality (%)=(Number of dead larvae/number of released larvae)×100

[3] = system: Two-Spotted Spider Mite (Tetranychus urticae); experiment: Test on adults of two-spotted spider mite (kidney bean leaf dip); settings: foliar, adults dipped together with kidney bean leaf, second or third day after the treatment, 25° C.
Description: Test on Adults of Two-Spotted Spider Mite (Tetranychus urticae)
Mortality of adults (%)=(Number of dead two-spotted spider mites/Number of treated two-spotted spider mites)×100

[4] = 800 ppm, Japanese radish leaf dipped about 10 seconds, first instar nymphs, counted 5 days after the treatment, 25° C., read-out: mortality
[5] = 800 ppm, cabbage leaf disk dipped about 10 seconds, second-third instar larvae, fifth day after the release, 25° C., read-out: mortality

Row | Compound | mortality at 800 ppm [1, 4] | mortality at 800 ppm [2, 5] | mortality at 800 ppm [3] | mortality at 800 ppm ([1]; in Raphanus sativus) | mortality at 800 ppm [2]
1 | FC(F)(F)c1cc(Cl)nc(NCc2ccccn2)c1 [Compound No. 128, N-(2-PYRIDYLMETHYL)-6-CHLORO-4-(TRIFLUOROMETHYL)-2-PYRIDYLAMINE] | ≥ 90% |  |  |  | 
2 | C=CCN(Cc1ccccn1)c1cc(C(F)(F)F)c(Cl)c(Cl)n1 [Compound No. 55, N-ALLYL-N-(2-PYRIDYLMETHYL)-5,6-DICHLORO-4-(TRIFLUOROMETHYL)-2-PYRIDYLAMINE] | ≥ 90% | ≥ 90% | ≥ 90% |  | 
3 | CC(c1cccnc1)N(Cc1ccccn1)c1cc(C(F)(F)F)c(Cl)c(Cl)n1 (stereo not drawn) [Compound No. 97, N-(1-(3-PYRIDYL)ETHYL)-N-(2-PYRIDYLMETHYL)-5,6-DICHLORO-4-TRIFLUOROMETHYL-2-PYRIDYLAMINE] | ≥ 90% | ≥ 90% | ≥ 90% |  | 
4 | FC(F)(F)c1cc(N(Cc2ccccn2)Cc2ccccn2)nc(Br)c1Cl [Compound No. 92, N,N-BIS(2-PYRIDYLMETHYL)-6-BROMO-5-CHLORO-4-(TRIFLUOROMETHYL)-2-PYRIDYLAMINE] | ≥ 90% | ≥ 90% | ≥ 90% |  | 
5 | FC(F)(F)c1cc(Br)nc(N(Cc2ccccn2)Cc2ccccn2)c1 [Compound No. 90, N,N-BIS(2-PYRIDYLMETHYL)-6-BROMO-4-(TRIFLUOROMETHYL)-2-PYRIDYLAMINE] | ≥ 90% |  | ≥ 90% |  | 
6 | FC(F)(F)c1cc(NCc2ccccn2)nc(Cl)c1Cl [Compound No. 118, N-(2-PYRIDYLMETHYL)-5,6-DICHLORO-4-(TRIFLUOROMETHYL)-2-PYRIDYLAMINE] | ≥ 90% | ≥ 90% | ≥ 90% |  | 
7 | N#Cc1c(C(F)(F)F)cc(N(Cc2ccccn2)Cc2ccccn2)nc1Cl [Compound No. 24, N,N-bis(2-pyridylmethyl)-6-chloro-5-cyano-4-(trifluoromethyl)-2-pyridylamine] |  |  |  | ≥ 90% | ≥ 90%
8 | O=[N+]([O-])c1cnc(N(Cc2ccccn2)Cc2ccccn2)cc1C(F)(F)F [Compound No. 9, N,N-BIS(2-PYRIDYLMETHYL)-5-NITRO-4-(TRIFLUOROMETHYL)-2-PYRIDYLAMINE] |  |  |  | ≥ 90% | ≥ 90%
9 | FC(F)(F)c1cc(N(Cc2ccccn2)Cc2ccccn2)nc(C(F)(F)F)c1Cl [Compound No. 103, N,N-BIS(2-PYRIDYLMETHYL)-5-CHLORO-4,6-BIS(TRIFLUOROMETHYL)-2-PYRIDYLAMINE] | ≥ 90% | ≥ 90% | ≥ 90% |  | 
10 | C#Cc1nc(N(Cc2ccccn2)Cc2ccccn2)cc(C(F)(F)F)c1Cl [Compound No. 94, N,N-BIS(2-PYRIDYLMETHYL)-5-CHLORO-6-ETHYNYL-4-(TRIFLUOROMETHYL)-2-PYRIDYLAMINE] | ≥ 90% |  | ≥ 90% |  | 
